ChEMBL document CHEMBL5465560, “Selectivity Literature for EUbOPEN Chemogenomic Library” (2024)

Tests used:
[1] = target: T1, MAP kinase-activated protein kinase 5 (Homo sapiens) (UniProt Q8IW41); experiment: Selectivity interaction (KinomeScan (DiscoverX)) EUB0000229b MAPKAPK5; conditions: at 10 µM
T1 sequence (whole entry): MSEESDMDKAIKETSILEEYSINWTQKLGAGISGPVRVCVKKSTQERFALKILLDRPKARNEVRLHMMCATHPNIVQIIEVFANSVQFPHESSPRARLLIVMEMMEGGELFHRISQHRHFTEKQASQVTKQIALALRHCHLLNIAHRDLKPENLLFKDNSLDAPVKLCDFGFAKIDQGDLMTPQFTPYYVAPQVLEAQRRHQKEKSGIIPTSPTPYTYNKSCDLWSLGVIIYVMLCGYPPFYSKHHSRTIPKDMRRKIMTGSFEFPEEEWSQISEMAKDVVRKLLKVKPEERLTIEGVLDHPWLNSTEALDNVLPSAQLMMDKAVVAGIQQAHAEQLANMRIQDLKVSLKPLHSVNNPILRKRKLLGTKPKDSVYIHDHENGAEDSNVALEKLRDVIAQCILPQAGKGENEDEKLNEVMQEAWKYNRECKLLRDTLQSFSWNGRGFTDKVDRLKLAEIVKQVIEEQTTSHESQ

[2] = target: Protein kinase C theta type (Homo sapiens, UniProt Q04759); experiment: Selectivity interaction (KinomeScan (DiscoverX)) EUB0000311b PRKCQ; conditions: at 1 µM
Sequence of Protein kinase C theta type (Q04759 whole entry, looked up): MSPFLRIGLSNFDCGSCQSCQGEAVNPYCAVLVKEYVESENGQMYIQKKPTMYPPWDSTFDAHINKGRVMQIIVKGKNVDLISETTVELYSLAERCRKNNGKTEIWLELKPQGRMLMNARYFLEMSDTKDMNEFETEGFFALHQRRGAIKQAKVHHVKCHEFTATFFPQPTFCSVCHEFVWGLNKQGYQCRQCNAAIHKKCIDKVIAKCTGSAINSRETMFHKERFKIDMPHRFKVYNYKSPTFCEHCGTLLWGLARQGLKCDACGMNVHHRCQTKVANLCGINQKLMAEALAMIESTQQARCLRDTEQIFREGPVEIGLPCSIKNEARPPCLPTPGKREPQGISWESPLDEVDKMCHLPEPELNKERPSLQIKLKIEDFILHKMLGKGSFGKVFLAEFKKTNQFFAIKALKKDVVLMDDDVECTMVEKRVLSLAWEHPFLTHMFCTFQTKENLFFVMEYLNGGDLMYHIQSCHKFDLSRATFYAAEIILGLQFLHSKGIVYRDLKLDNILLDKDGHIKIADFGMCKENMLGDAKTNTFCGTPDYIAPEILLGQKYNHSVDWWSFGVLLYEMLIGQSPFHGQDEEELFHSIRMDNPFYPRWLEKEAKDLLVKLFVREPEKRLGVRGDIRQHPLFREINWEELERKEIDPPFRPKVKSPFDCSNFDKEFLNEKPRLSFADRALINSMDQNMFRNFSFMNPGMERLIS

[3] = target: T2, Serine/threonine-protein kinase pim-1 (Homo sapiens, UniProt P11309); conditions: at 10 µM
T2 sequence (P11309 whole entry, looked up): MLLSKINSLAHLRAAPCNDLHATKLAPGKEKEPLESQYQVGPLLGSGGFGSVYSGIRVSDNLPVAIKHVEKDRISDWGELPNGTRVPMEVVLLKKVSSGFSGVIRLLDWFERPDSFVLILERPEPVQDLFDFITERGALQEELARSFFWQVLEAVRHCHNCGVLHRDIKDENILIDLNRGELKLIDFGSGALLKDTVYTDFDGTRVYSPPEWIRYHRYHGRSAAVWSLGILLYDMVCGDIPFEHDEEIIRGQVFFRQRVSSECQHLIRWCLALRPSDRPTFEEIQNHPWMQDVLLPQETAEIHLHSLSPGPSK

[4] = target: T3, Tyrosine-protein kinase ITK/TSK (Homo sapiens) (UniProt Q08881); experiment: Selectivity interaction (KinomeScan (DiscoverX)) EUB0000045b ITK
T3 sequence (whole entry): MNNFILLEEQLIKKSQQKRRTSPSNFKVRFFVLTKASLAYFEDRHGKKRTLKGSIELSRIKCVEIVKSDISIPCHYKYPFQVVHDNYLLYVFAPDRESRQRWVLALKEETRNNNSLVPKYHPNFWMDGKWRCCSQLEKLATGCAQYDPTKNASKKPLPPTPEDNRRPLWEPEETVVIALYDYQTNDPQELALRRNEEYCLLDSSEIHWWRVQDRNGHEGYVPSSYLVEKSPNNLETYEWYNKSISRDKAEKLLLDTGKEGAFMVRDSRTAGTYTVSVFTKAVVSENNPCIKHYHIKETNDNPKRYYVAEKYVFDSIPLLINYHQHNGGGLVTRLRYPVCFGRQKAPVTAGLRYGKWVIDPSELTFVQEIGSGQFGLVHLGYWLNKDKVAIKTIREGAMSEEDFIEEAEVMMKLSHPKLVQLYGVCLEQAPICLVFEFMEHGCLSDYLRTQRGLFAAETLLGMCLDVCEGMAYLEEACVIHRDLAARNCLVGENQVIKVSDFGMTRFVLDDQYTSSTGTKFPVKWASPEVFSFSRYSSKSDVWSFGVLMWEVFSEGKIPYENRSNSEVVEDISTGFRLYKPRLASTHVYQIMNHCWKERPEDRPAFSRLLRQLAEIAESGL

[5] = target: T4, Serine/threonine-protein kinase RIO3 (Homo sapiens) (UniProt O14730); experiment: Selectivity interaction (KinomeScan (DiscoverX)) EUB0001079a RIOK3; conditions: at 1 µM
T4 sequence (whole entry): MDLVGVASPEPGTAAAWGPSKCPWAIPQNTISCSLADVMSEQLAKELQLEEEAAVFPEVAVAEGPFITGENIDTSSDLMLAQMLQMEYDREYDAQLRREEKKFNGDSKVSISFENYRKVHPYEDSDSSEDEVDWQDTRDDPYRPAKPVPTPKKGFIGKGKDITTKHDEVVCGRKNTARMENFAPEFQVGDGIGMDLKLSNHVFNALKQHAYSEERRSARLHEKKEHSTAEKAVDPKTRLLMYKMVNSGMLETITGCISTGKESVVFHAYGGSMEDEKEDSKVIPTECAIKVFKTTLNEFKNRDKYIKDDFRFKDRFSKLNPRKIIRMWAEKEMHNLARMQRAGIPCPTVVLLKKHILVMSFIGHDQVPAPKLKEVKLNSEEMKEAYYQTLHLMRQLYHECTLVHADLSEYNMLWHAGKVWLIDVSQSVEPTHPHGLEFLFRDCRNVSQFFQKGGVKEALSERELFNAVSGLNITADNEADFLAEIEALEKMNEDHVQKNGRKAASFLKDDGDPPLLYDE

[6] = target: Myosin light chain kinase, smooth muscle (Homo sapiens, UniProt Q15746); experiment: Selectivity interaction (KinomeScan (DiscoverX)) EUB0000666a MYLK; conditions: at 10 µM
Sequence of Myosin light chain kinase, smooth muscle (Q15746 whole entry): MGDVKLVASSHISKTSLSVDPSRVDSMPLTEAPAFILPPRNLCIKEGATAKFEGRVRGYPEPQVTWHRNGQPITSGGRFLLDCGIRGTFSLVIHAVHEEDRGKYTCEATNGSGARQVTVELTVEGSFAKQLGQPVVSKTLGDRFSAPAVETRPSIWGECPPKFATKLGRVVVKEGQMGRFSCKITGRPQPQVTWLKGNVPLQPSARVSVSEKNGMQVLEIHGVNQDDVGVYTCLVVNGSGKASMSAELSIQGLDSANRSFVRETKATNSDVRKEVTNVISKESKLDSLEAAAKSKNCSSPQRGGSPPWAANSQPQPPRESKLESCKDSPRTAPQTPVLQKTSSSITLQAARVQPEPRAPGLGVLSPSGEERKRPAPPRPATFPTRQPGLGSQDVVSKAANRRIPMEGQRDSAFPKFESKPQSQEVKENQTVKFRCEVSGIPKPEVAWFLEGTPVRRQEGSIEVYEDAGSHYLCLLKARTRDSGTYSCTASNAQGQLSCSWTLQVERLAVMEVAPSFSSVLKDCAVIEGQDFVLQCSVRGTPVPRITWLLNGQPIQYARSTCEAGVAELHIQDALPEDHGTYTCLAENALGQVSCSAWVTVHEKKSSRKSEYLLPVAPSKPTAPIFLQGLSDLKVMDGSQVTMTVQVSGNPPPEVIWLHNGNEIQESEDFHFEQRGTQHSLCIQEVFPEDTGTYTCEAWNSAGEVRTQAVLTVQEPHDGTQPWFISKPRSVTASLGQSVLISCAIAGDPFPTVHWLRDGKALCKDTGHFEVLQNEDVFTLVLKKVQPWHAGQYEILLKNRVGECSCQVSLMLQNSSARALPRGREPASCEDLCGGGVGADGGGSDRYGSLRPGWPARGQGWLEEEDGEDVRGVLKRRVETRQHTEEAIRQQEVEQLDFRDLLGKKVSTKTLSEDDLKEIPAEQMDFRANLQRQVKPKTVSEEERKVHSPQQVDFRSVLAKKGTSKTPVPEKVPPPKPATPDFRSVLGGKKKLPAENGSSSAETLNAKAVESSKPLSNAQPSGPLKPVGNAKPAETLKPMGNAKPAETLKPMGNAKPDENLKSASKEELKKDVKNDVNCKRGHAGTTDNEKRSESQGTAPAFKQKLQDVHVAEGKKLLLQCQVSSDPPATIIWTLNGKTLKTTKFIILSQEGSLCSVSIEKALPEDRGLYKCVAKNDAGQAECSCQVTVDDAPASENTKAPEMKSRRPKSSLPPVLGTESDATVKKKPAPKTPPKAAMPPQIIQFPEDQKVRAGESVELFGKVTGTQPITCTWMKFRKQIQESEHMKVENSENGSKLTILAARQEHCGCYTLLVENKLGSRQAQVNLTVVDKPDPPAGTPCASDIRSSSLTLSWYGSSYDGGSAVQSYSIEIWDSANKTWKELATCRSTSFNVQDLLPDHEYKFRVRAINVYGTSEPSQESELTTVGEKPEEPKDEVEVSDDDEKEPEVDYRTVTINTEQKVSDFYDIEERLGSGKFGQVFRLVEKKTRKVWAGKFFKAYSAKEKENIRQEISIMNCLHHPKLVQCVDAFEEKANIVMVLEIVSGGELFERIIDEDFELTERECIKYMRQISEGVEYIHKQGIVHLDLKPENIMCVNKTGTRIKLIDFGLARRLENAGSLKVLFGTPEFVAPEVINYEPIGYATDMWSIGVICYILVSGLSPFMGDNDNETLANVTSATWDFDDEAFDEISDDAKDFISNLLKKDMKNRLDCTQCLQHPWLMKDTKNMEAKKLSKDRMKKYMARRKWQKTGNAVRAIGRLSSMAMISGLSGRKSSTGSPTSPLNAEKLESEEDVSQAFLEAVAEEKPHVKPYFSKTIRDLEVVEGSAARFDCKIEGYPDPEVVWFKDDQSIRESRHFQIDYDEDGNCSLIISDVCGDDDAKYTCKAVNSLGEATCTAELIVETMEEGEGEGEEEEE

[7] = target: T5, Dual specificity mitogen-activated protein kinase kinase 7 (Homo sapiens) (UniProt O14733); experiment: Selectivity interaction (KinomeScan (DiscoverX)) EUB0000666a MAP2K7; conditions: at 10 µM
T5 sequence (whole entry): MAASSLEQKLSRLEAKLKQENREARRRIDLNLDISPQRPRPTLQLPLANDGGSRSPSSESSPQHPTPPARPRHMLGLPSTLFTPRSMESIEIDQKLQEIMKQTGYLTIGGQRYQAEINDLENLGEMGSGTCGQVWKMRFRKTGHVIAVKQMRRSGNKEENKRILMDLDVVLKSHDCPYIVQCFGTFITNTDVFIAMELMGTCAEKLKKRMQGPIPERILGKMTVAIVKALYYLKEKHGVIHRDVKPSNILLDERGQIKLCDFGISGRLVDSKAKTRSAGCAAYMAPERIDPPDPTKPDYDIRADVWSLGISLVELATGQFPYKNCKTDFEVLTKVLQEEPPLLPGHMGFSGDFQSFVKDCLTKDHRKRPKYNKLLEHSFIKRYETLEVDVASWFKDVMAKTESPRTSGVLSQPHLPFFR

[8] = target: T2, Serine/threonine-protein kinase pim-1; experiment: Selectivity interaction (Millipore kinase profiler) EUB0000124b PIM1; conditions: at 10 µM
[9] = target: Tyrosine-protein kinase Yes (Homo sapiens) (UniProt P07947); experiment: Selectivity interaction (KinomeScan (DiscoverX)) EUB0000618a YES1; conditions: at 10 µM
[10] = target: Tyrosine-protein kinase HCK (Homo sapiens) (UniProt P08631); experiment: Selectivity interaction (Kinase panel (Invitrogen)) EUB0000639a HCK; conditions: at 200 nM
Sequence of Tyrosine-protein kinase HCK (Homo sapiens) (P08631 2-526 limits assumed): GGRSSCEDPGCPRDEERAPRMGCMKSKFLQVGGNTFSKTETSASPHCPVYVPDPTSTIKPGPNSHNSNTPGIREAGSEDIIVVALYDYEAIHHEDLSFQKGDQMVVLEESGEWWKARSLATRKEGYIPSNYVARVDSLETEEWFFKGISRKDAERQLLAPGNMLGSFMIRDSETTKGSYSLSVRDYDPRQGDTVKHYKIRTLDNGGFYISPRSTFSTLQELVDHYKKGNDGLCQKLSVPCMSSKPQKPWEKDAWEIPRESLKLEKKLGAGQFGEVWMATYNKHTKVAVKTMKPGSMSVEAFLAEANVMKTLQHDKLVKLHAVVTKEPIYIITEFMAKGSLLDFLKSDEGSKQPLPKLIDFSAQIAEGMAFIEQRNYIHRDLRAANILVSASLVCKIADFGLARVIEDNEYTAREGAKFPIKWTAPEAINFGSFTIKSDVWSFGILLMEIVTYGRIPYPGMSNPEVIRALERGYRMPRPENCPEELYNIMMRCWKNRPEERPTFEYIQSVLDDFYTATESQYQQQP

[11] = target: Tyrosine-protein kinase HCK (Homo sapiens) (UniProt P08631); experiment: Selectivity interaction (ActivX KiNativ screen (kinase selectivity in THP-1 cell lysates)) EUB0000639a HCK; format: subcellular; conditions: lysate, at 0.04 µM
[12] = target: Serine/threonine-protein kinase 26 (Homo sapiens, UniProt Q9P289); experiment: Selectivity interaction (KinomeScan (DiscoverX)) EUB0000655a STK26; conditions: at 10 µM
Sequence of Serine/threonine-protein kinase 26 (Q9P289 2-416 limits assumed): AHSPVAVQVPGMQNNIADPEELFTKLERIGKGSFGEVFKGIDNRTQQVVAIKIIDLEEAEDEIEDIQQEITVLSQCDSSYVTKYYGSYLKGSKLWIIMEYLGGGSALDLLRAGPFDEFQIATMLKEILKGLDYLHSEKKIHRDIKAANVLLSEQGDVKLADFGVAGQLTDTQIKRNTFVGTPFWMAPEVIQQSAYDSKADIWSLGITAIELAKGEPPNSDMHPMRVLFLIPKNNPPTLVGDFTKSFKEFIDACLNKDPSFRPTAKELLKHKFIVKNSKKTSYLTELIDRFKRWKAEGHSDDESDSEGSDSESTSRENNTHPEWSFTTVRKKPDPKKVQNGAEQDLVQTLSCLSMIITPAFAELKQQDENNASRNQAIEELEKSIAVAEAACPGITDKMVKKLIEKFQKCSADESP

[13] = target: T4, Serine/threonine-protein kinase RIO3 (Homo sapiens); experiment: Selectivity interaction (KinomeScan (DiscoverX)) EUB0000092b RIOK3; conditions: at 10 µM
[14] = target: Serine/threonine-protein kinase 38-like (Homo sapiens) (UniProt Q9Y2H1); experiment: Selectivity interaction (KinomeScan (DiscoverX)) EUB0000092b STK38L; conditions: at 10 µM
[15] = target: BDNF/NT-3 growth factors receptor (Homo sapiens) (UniProt Q16620); experiment: Selectivity interaction (KinomeScan (DiscoverX)) EUB0000092b NTRK2; conditions: at 10 µM
Sequence of BDNF/NT-3 growth factors receptor (Homo sapiens) (Q16620 32-822 limits assumed): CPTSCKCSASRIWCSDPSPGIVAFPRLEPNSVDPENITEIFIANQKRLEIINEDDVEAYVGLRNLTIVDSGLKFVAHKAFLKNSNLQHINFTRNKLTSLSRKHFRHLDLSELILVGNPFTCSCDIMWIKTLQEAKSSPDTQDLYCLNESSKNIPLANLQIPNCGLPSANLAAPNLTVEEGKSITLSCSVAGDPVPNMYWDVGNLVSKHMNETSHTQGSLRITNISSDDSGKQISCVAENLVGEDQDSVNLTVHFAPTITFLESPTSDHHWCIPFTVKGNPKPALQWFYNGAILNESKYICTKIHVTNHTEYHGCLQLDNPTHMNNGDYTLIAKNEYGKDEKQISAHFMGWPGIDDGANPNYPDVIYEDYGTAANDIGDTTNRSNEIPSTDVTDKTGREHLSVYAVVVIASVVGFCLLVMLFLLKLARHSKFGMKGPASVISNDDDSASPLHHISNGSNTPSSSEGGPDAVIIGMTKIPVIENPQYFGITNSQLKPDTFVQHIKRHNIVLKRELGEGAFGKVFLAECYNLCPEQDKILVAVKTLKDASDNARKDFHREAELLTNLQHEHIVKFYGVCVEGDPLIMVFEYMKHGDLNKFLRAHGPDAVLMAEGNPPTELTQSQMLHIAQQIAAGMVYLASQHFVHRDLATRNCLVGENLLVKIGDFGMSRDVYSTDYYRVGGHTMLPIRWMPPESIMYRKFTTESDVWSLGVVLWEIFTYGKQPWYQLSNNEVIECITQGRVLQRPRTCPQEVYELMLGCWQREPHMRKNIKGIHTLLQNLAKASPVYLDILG

## COc1cc(N(C)c2ccnc3ccc(C(F)(F)F)cc23)cc(OC)c1OC
[1]
  % binding: 63%

## CCc1ccccc1C(=O)Nc1n[nH]c2c(C)c(F)c(C3C(C#N)=C(C)N(C)C(C)=C3C#N)cc12 [BAY-3827]
[2]
  % of control: 15%

## COCC(=O)NC/C=C/c1ccc2ncnc(Nc3ccc(Oc4ccc(C)nc4)c(C)c3)c2c1 [CP-724714]
[3]
  % of control: 100%

## C=CC(=O)Nc1cc(-n2c(=O)ccc3cnc4ccc(-c5ccc(NS(C)(=O)=O)cc5)cc4c32)ccc1C
[4]; at 1 µM
  % of control: 52%
[4]; at 10 µM
  % of control: 43%

## Nc1cnc(N2CCc3cc(S(=O)(=O)Nc4c(F)cc(Cl)cc4F)cc(N4CCCC4=O)c32)nc1 [TP-020n]
[5]
  % of control: 100%

## O=C(NOC[C@H](O)CO)c1ccc(F)c(F)c1Nc1ccc(I)cc1F
[6]
  % of control: 96%
[7]
  % of control: 100%

## CC(=O)Nc1cccc(-n2c(=O)n(C3CC3)c(=O)c3c(Nc4ccc(I)cc4F)n(C)c(=O)c(C)c32)c1
[8]
  % of control: 94%

## O[C@H]1CC[C@H](Nc2ncc3nc(Nc4c(F)cc(F)cc4F)n([C@H]4CCOC4)c3n2)CC1
[9]
  % of control: 98%

## CC[C@@H]1[C@H](F)C(=O)N[C@@H]1COc1nccc2cc(C(N)=O)c(OC)cc12 [ZIMLOVISERTIB]
[10]
  % of inhibition: 4.23%
[11]
  % of inhibition: -8.7%

## CN(C)CCOc1ccc(-c2nc(-c3ccncc3)c(-c3ccc4c(c3)CC/C4=N\O)[nH]2)cc1
[12]
  % of control: 91%

## CCC(=O)N1CCN(c2ccc(-n3c(=O)ccc4cnc5ccc(-c6cnc7ccccc7c6)cc5c43)cc2C(F)(F)F)CC1
[13]
  % of control: 90%
[14]
  % of control: 94%
[15]
  % of control: 81%
